Measured values published in patent US20210070687A1, “MOLECULAR WEIGHT CONTROLLING AGENT FOR RADICAL POLYMERIZATION, METHOD FOR PRODUCING POLYMER USING SAME, AND POLYMER” (SDP Global Co., Ltd., priority 2017, published 2021).

Assay: Solubility in water at 20° C. of the iodine compounds
Conditions: % means % by weight

SMILES	Solubility in water (20° C.) [%]
CC(I)C(N)=O (centres unmarked) [Example 2, 2-Iodopropionamide]	1.2
O=C(O)C(I)c1ccccc1 (centres unmarked) [Reference Example 1, 2-Iodo-2-phenylacetic acid, reference compound]	0.1
O=C([O-])C(I)c1ccccc1.[Na+] (centres unmarked) [Example 6, Sodium 2-iodo-2-phenylacetate]	>10
CC(C)(I)C(=O)O [Example 1, 2-Iodo-2-methylpropionic acid]	1.9
CCOC(=O)C(C)(C)I [Reference Example 5, Ethyl 2-iodo-2-methylpropionate, reference compound]	<0.1
CC(C)(I)C(=O)OCCO [Example 3, 2-Hydroxyethyl 2-iodo-2-methylpropionate]	3.2
CC(C)(I)C(=O)[O-].[Na+] [Example 5, Sodium 2-iodo-2-methylpropionate]	>10
CCOC(=O)C(C)I (centres unmarked) [Reference Example 4, Ethyl 2-iodopropionate, reference compound]	0.2
